Assay results from publication PMC3674150 (Cancer research, 2013).
Where two headings read alike, the source gives them in different places.

Tests used:
K562 cells [1] = test: Apoptosis assay; type: cell-based, human
K562 cells [2] = tested on: K562 cells
[3] = clinical, cited from earlier work
[4] = tested on: BCR-ABL signaling (pCrkL) in K562 cells
[5] = tested on: BCR-ABL signaling (pCrkL, pSTAT5) in K562 cells; settings: 500 and 5000 nM for 2 h, FACS
[6] = tested on: BCR-ABL signaling (pSTAT5) in primary CML cells; test: Phosflow FACS analysis of pSTAT5 in primary CML cells; type: cell-based, human; settings: 100 nM for 4 h
primary CML cells = test: Apoptosis assay in primary CML mononuclear cells after washout; settings: primary CML cells (12/209), 4 h at 100 nM
K562 cells [7] = test: Detection of inhibitors by LC/MS/MS in cellular and media fractions
[8] = 2 h exposure at 10 nM, annexin V at 72 h
[9] = 2 h exposure at 10 nM, standard washout, annexin V at 72 h
[10] = 2 h exposure at 100 nM, annexin V at 72 h
[11] = 2 h exposure at 100 nM, standard washout, annexin V at 72 h
[12] = 100 nM for 2 h, after standard washout

SMILES: CNC(=O)c1cc(Oc2ccc(NC(=O)Nc3cc(C(C)(C)C)nn3-c3ccc4ncccc4c3)c(F)c2)ccn1 [DCC-2036, rebastinib]
- concentration inducing substantial apoptosis over untreated (K562 cells [1]; continuous exposure for 72 h): 25 to 50 nM
- TKI in the media fraction (K562 cells [2]): either not detected or below the lower limit of quantitation

SMILES: Cc1nc(Nc2ncc(C(=O)Nc3c(C)cccc3Cl)s2)cc(N2CCN(CCO)CC2)n1 [dasatinib]
- apoptosis after expanded washout (K562 cells [1]; [8]): background levels of apoptosis
- apoptosis after standard washout compared to continuous exposure (K562 cells [1]; [9]): abolished onset of apoptosis
- apoptosis after expanded washout (K562 cells [1]; [10]): moderate reduction in the extent of apoptosis
- apoptosis after standard washout compared to continuous exposure (K562 cells [1]; [11]): only slightly diminished the extent of apoptosis
- apoptosis (annexin V-positive cells) (K562 cells [1]; continuous exposure at 10 nM or 100 nM): substantial onset of apoptosis
- TKI in the media fraction (K562 cells [2]): either not detected or below the lower limit of quantitation
- plasma half-life ([3]; ref 9, 21): 3 to 5 h
- plasma half-life ([3]; ref 10, 11): 3 to 5 h
- serum half-life ([3]; ref 13): 3 to 5 h

SMILES: Cc1cn(-c2cc(NC(=O)c3ccc(C)c(Nc4nccc(-c5cccnc5)n4)c3)cc(C(F)(F)F)c2)cn1 [nilotinib]
- apoptosis after expanded washout (K562 cells [1]; 2 h exposure at 5000 nM, annexin V at 72 h): reduced to background levels
- apoptosis after standard washout (K562 cells [1]; 2 h exposure at 5000 nM, standard washout, annexin V at 72 h): substantial apoptosis
- pCrkL signal inhibition at end of exposure ([4]; 2 h exposure at 500 nM): near complete pCrkL signal blockade
- pCrkL signal inhibition at end of exposure ([4]; 2 h exposure at 5000 nM): complete interruption
- pCrkL after expanded washout [5]: pCrkL levels approximating pretreatment levels
- media level of TKI (K562 cells [2]; human, 2 h, 5000 nM): 25.5 nM

SMILES: Cc1ccc(C(=O)Nc2ccc(CN3CCN(C)CC3)c(C(F)(F)F)c2)cc1C#Cc1cnc2cccnn12 [ponatinib]
- apoptosis after expanded washout (K562 cells [1]; [8]): reduced to background levels
- apoptosis after standard washout compared to continuous exposure (K562 cells [1]; [9]): minimal
- apoptosis after expanded washout (K562 cells [1]; [10]): unaffected
- apoptosis after standard washout compared to continuous exposure (K562 cells [1]; [11]): no reduction in apoptosis
- pSTAT5 at 24 h post expanded washout [6]: approaching but not quite reaching those of untreated cells
- pSTAT5 at 24 h post standard washout [6]: remained inhibited
- pCrkL level after treatment compared to untreated/pretreatment ([4]; 2 h treatment at 10 nM, immunoblot): 25-50%
- pCrkL level after treatment ([4]; 2 h treatment at 100 nM, immunoblot): essentially undetectable levels
- apoptosis after expanded washout (primary CML cells): not completely back to baseline
- intracellular inhibitor level (K562 cells [7]; 10 nM for 2 h, after expanded washout): 0.14 ng/10^6 cells
- intracellular inhibitor level (K562 cells [7]; 10 nM for 2 h, after standard washout): 0.24 ng/10^6 cells
- intracellular inhibitor level (K562 cells [7]; 100 nM for 2 h, after expanded washout): 0.87 ng/10^6 cells
- intracellular inhibitor level (K562 cells [7]; [12]): 2.11 ng/10^6 cells
- media level of TKI (K562 cells [7]; [12]): 6.68 nM
